The source of these data is US5691373A, “Nonpeptide endothelin antagonists I” (Warner-Lambert Company, priority 1995, dated 1997).

Structures are written as SMILES. pIC50: −log10 of the molar value. Where a name gives a salt, the structure may show the parent alone. Read-outs that look alike come from different tables or passages of the source. Bounds are passed on as bounds.

The target of one assay is T1, ETB (Rattus norvegicus, UniProt P21451).
T1 sequence (P21451 27-442): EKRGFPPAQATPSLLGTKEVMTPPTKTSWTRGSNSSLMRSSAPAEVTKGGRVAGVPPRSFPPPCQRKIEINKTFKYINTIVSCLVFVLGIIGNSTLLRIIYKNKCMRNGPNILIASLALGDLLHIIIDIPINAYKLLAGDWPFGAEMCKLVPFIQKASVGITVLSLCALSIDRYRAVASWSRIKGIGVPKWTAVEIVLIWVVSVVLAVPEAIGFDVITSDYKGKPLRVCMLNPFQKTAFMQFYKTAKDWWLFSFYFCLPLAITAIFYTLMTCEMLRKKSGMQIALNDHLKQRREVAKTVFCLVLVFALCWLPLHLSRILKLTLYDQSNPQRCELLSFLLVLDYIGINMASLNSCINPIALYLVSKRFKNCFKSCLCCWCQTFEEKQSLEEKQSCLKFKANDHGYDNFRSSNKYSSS

A further assay deals with T2, human ETB receptor (Homo sapiens, UniProt P24530).
T2 construct: expressed in transfected cells; host or cells: CHO-K1 cells, pRc-CMW (so in the source) expression vector, electroporation; membranes used
T2 sequence (P24530 27-442): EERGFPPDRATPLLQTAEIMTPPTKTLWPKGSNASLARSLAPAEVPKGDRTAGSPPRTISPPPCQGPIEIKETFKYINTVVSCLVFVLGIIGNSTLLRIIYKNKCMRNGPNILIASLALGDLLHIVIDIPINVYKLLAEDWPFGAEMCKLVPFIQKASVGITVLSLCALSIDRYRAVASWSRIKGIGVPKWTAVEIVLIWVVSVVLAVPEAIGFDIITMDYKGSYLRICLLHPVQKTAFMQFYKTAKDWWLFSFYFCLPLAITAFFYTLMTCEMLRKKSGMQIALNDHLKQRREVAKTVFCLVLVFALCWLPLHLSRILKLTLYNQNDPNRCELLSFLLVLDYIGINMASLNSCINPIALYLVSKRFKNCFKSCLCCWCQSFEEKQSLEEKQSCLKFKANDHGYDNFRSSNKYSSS
The experiment in a line: ERBA-B: [125I]-ET-1 binding, recombinant human ETB receptor expressed in CHO-K1 cells. The following applies: human cloned ETB receptor, read-out: ERBA-B IC50, human cloned receptor data.

In the next assay the target is T3, ETA (Oryctolagus cuniculus, UniProt A5A8K3).
T3 sequence (A5A8K3 21-427): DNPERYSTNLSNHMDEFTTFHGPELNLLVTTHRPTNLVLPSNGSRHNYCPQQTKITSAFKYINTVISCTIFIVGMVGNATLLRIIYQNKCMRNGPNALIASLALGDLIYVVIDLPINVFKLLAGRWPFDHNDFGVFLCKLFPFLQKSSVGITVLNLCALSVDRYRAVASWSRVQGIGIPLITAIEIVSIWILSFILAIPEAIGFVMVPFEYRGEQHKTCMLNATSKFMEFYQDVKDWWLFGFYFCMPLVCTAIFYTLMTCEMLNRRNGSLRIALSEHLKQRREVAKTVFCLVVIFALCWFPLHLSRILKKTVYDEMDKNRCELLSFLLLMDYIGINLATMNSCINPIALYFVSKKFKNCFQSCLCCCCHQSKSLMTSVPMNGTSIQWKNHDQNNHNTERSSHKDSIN
The following applies: ERBA-A IC50, [125I]-ET-1, rabbit renal artery vascular smooth muscle cells.

Broadly, the pIC50 is the IC50 on a negative log10 scale, so that one unit is a factor of ten. On ETB, `CN(C)c1ccc(CC2=C(c3ccc(N(C)C)cc3)C(=O)OC2(O)c2ccc(Cl)cc2)cc1` (racemic) [Example 55, 2(5H)-Furanone, 5-(4-chlorophenyl)-3-[4-(dimethylamino)phenyl]-4-[[4-(dimethylamino)phenyl]methyl]-5-hydroxy-, (±)-] showed a negative logarithm of the IC50 (pIC50) of 4.68. With `COc1ccc(CC2=C(c3ccc4c(c3)OCO4)C(=O)OC2(O)c2ccc(OC)cc2)cc1` (stereo not drawn) [Example 77, 3-Benzo[1,3]dioxol-5-yl-5-hydroxy-4-(4-methoxybenzyl)-5-(4-methoxyphenyl)-5 H-furan-2-one], on ETB (read-out: ERBA-B IC50, [125I]-ET-1, rat cerebellar membranes), the pIC50 was 6.66.

In turn, `O=C1OC(O)(c2ccccc2)C(Cc2ccccc2)=C1c1ccc2c(c1)OCO2` (stereo not drawn) [Example 24, 2(5H)-Furanone, 3-(1,3-benzodioxol-5-yl)-5-hydroxy-5-phenyl-4-(phenylmethyl)-] showed a negative-log IC50 (pIC50) at ETB of 4.59. Turning to `COc1ccc(C2(O)OC(=O)C(c3ccc4c(c3)OCO4)=C2Cc2ccc(-c3ccccc3)cc2)cc1` (stereo not drawn) [Example 162, 3-Benzo[1,3]dioxol-5-yl-4-biphenyl-4-ylmethyl-5-hydroxy-5-(4-methoxyphenyl) -5H-furan-2-one], the pIC50 on human ETB receptor is 5.72; at ETA, 6.41.

Regarding `COc1ccc(C2(O)OC(=O)C(c3ccc4c(c3)OCO4)=C2CCC2CCCCC2)cc1` (stereo not drawn) [Example 322, 3-Benzo-[1,3]dioxol-5-yl-4-(2-cyclohexyl-ethyl)-5-hydroxy-5-(4-methoxy-phenyl)-5H-furan-2-one], the pIC50 on human ETB receptor is 5.40; at ETA, 5.48.

In the case of `COc1ccc(C2(O)OC(=O)C(c3ccc4c(c3)OCO4)=C2Cc2ccc(C(C)C)cc2)cc1` (stereo not drawn) [Example 404, 3-Benzo[1,3]dioxol-5-yl-5-hydroxy-4-(4-isopropylbenzyl)-5-(4-methoxy-phenyl)-5H-furan-2-one], the pIC50 on human ETB receptor is less than 5.60; on ETA, 7.24. The corresponding values for `COc1ccc(C2(O)OC(=O)C(c3ccc4c(c3)OCO4)=C2Cc2ccccc2Oc2ccc3c(c2)OCO3)cc1` (stereo not drawn) [Example 324, 3-Benzo[1,3]dioxol-5-yl-4-[2-(benzo[1,3]dioxol-5-yloxy)-benzyl]-5-hydroxy-5-(4-methoxy-phenyl)-5H-furan-2-one] are 5.28 and 8.08. `C=CCOc1ccc(OC)cc1C1=C(Cc2ccccc2)C(O)(c2ccc(OC)cc2)OC1=O` (stereo not drawn) [Example 337, 3-(2-Allyloxy-5-methoxy-phenyl)-4-benzyl-5-hydroxy-5-(4-methoxy-phenyl)-5H-furan-2-one]: the negative logarithm of the IC50 (pIC50) on human ETB receptor was less than 4.60; against ETA it was 5.60. Consider `C=CCOc1cc(CC2=C(c3ccc4c(c3)OCO4)C(=O)OC2(O)c2ccc(OC)cc2OC)ccc1OC` (stereo not drawn) [Example 255, 4-(3-Allyloxy-4-methoxybenzyl)-3-benzo[1,3]dioxol-5-yl-5-(2,4-dimethoxyphenyl)-5-hydroxy-5H-furan-2-one], for which the pIC50 at human ETB receptor was 5.85; against ETA, 8.08. Turning to `COc1ccc(C2(O)OC(=O)C(c3cc(OC)cc(OC)c3)=C2Cc2cccnc2)cc1` (racemic) [Example 166, 2(5H)-Furanone, 3-(3,5-dimethoxyphenyl)-5-hydroxy-5-(4-methoxyphenyl)-4-(3-pyridinylmethyl)-, (±)-, monohydrochloride], the figures for the pIC50 on human ETB receptor and at ETA were less than 5.60 and 7.40, respectively. The corresponding values for `COc1ccc(C2(O)OC(=O)C(c3ccc4c(c3)OCO4)=C2Cc2cncc3ccccc23)cc1` (stereo not drawn) [Example 161, 3-Benzo[1,3]dioxol-5-yl-5-hydroxy-4-isoquinolin-4-ylmethyl-5-(4-methoxyphenyl)-5H-furan-2-one] are 5.49 and 7.40. The corresponding values for `COc1ccc(C2(O)OC(=O)C(c3ccc4c(c3)OCO4)=C2CC2CCCC2)cc1` (stereo not drawn) [Example 314, 3-Benzo[1,3]dioxol-5-yl-4-cyclopentylmethyl-5-hydroxy-5-(4-methoxy-phenyl)-5H-furan-2-one] are 6.19 and 8.08.
